According to publication PMC8432172, “Properties of Transport Mediated by the Human Organic Cation Transporter 2 Studied in a Polarized Three-Dimensional Epithelial Cell Culture Model” (International Journal of Molecular Sciences, 2021):
Several values for one entry are separate records, joined by “and”; a condition that tells them apart may be missing. Identical values can stand only once. Entries after “also recorded” stand apart in the source; their conditions may differ.

Tests used:
hOCT2 [1] = target: T1, hOCT2 (Homo sapiens, UniProt O15244); test: ASP+ uptake (saturation and inhibition) in hOCT2-HEK cells; type: cell-based; parameters: expressed in transfected cells; host or cells: HEK293, stably transfected; gift of Prof; Koepsell (University of Würzburg)
T1 sequence (O15244 1-555): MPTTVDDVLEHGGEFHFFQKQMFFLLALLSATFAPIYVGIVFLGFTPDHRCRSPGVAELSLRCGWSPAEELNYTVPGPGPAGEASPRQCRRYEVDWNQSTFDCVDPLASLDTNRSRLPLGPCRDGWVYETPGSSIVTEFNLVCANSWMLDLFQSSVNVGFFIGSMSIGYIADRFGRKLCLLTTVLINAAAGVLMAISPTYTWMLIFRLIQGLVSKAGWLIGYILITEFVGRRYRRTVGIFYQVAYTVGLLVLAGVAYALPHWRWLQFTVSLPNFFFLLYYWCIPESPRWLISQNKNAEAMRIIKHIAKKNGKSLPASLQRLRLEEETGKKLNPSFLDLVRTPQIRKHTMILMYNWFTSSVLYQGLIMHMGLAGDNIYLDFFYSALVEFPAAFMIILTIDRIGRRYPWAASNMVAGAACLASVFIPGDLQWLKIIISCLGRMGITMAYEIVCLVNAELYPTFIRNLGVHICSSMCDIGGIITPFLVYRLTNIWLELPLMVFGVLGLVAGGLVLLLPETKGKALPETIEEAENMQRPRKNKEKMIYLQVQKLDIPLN

hOCT2 [2] = target: T1, hOCT2; test: ASP+ uptake (saturation and inhibition) in hOCT2-MDCK cysts; type: cell-based; parameters: The full-length hOCT2 tagged at the carboxy-terminus with GFP (hOCT2-GFP); expressed in transfected cells; host or cells: MDCK II cells (ECACC 00062107), retroviral transduction with pQCXIH, grown as cysts in BME2
hOCT2 [3] = target: T1, hOCT2; test: Acute regulation of ASP+ uptake and ASP+ transport kinetics in hOCT2-MDCK cysts (10 min incubation with kinase/calmodulin inhibitors); type: cell-based; parameters: The full-length hOCT2 tagged at the carboxy-terminus with GFP (hOCT2-GFP); expressed in transfected cells; host or cells: MDCK II cells (ECACC 00062107), retroviral transduction with pQCXIH, grown as cysts in BME2; conditions: for Acute regulation of initial ASP+ uptake after 10 min incubation: 4 µM ASP+, calmidazolium 5 µM, aminogenistein 10 µM, TBBz 10 µM
Method: (§1) The organic cation ASP^+ was used as a fluorescent substrate of hOCT2 [54]. […] To evaluate hOCT2 function, cellular fluorescence was measured before and after ASP^+ addition in the hOCT2-HEK cells and hOCT2-MDCK and EV-MDCK cysts. Transport measurements were performed at T = 37 °C. […] The effects of the CKII regulation pathway on the kinetic parameters of ASP^+ uptake in hOCT2- MDCK-3D were investigated, comparing the saturation curves in the presence or absence of the regulator.

hOCT2 [4] = test: Acute regulation of ASP+ uptake in hOCT2-HEK cells (10 min incubation with kinase/calmodulin inhibitors); type: cell-based, human; conditions: 1 µM ASP+, calmidazolium 5 µM, aminogenistein 10 µM, TBBz 10 µM
Method: as §1

endogenous canine OCT2 = test: ASP+ uptake in EV-MDCK cysts (empty vector); type: cell-based; conditions: EV-MDCK cysts (GFP alone); 1 mM TPA+
Method: Upon the addition of 4 µM ASP^+, an increase in cellular fluorescence was observed over time. This fluorescence increase was much higher in the hOCT2-MDCK than the EV-MDCK cysts. […] The slope of the linear range of the ASP^+ uptake increase measured in the first 2 min after ASP^+ addition (arbitrary fluorescence units/[…]) was used as the measurement of the transporter function.
The organic cation ASP^+ was used as a fluorescent substrate of hOCT2 [54]. […] To evaluate hOCT2 function, cellular fluorescence was measured before and after ASP^+ addition in the hOCT2-HEK cells and hOCT2-MDCK and EV-MDCK cysts. Transport measurements were performed at T = 37 °C.

[5] = hOCT2-HEK cells, 1 µM ASP+, 37 °C
[6] = hOCT2-HEK cells, 1 µM ASP+, 37 °C, read-out: IC50 for the inhibition of ASP+ uptake
[7] = hOCT2-MDCK cysts, 4 µM ASP+, 37 °C
[8] = hOCT2-MDCK cysts, 4 µM ASP+, 37 °C, read-out: IC50 for the inhibition of ASP+ uptake

Row | Compound | logIC50 ± SEM for the inhibition of ASP+ uptake (hOCT2 [1]; [5]) | IC50 (hOCT2 [1]; [6]) [µM] | logIC50 ± SEM for the inhibition of ASP+ uptake (hOCT2 [2]; [7]) | IC50 (hOCT2 [2]; [8]) [µM] | Acute regulation of initial ASP+ uptake after 10 min incubation (hOCT2 [4]) | Acute regulation of initial ASP+ uptake after 10 min incubation (hOCT2 [3]) | also measured
1 | CN(C)c1ccc(C=Cc2cc[n+](C)cc2)cc1 [ASP^+, 4-(4-(dimethylamino)styryl)-N-methylpyridinium] | – | – | – | – | – | – | Km (hOCT2 [1]; hOCT2-HEK cells, 0-20 µM ASP+, uptake in presence of 1 mM TPA+ subtracted, 37 °C, read-out: Km ± SEM of specific ASP+ uptake): 3.1 ± 0.2 µM; Km (hOCT2 [2]; hOCT2-MDCK cysts, 0-20 µM ASP+, uptake in presence of 1 mM TPA+ subtracted, 37 °C, read-out: Km ± SEM of specific ASP+ uptake): 3.6 ± 1.2 µM; Vmax of ASP+ transport, control (-TBBz) (hOCT2 [3]; 10 min preincubation with control solution): 6.1 ± 0.1 a.u./s^2; Km (hOCT2 [3]; 10 min preincubation with control solution, read-out: Km of ASP+ transport, control (-TBBz)): 2.6 ± 0.2 µM
2 | CCS(=O)(=O)N1CC(CC#N)(n2cc(-c3ncnc4[nH]ccc34)cn2)C1 [Baricitinib, baricitinib] | −6.00 ± 0.06 | 1.1 | −4.81 ± 0.06 | 15.4 | – | – | logIC50 ± SEM for the inhibition of ASP+ uptake (hOCT2 [1]; hOCT2-HEK cells, 1 µM ASP+, 37 °C, listed as baricitinib): −6.0 ± 0.1; logIC50 ± SEM for the inhibition of ASP+ uptake (hOCT2 [2]; hOCT2-MDCK cysts, 4 µM ASP+, 37 °C, listed as baricitinib): −4.8 ± 0.1
3 | CN(C)C(=N)N=C(N)N [Metformin, metformin] | −3.10 ± 0.11 | 804 | −3.05 ± 0.09 | 884 | – | – | logIC50 ± SEM for the inhibition of ASP+ uptake (hOCT2 [1]; hOCT2-HEK cells, 1 µM ASP+, 37 °C, listed as metformin): −3.1 ± 0.1; logIC50 ± SEM for the inhibition of ASP+ uptake (hOCT2 [2]; hOCT2-MDCK cysts, 4 µM ASP+, 37 °C, listed as metformin): −3.1 ± 0.1
4 | Brc1c(Br)c(Br)c2[nH]cnc2c1Br [TBBz, 4,5,6,7-tetrabromobenzimidazole] | – | – | – | – | only in the hOCT2-MDCK cysts | rapid decrease in ASP^+ uptake only in the hOCT2-MDCK cysts | Vmax of ASP+ transport under CKII inhibition (+TBBz) (hOCT2 [3]; 10 min preincubation with 10 µM TBBz): 3.9 ± 0.8 a.u./s^2
5 | CC[N+](CC)(CC)CC [TEA^+, tetraethylammonium] | −5.1 ± 0.1 and −5.12 ± 0.08 | 7.6 | −4.7 ± 0.1 and −4.67 ± 0.11 | 21.3 | – | – | –
6 | CCCCC[N+](CCCCC)(CCCCC)CCCCC [TPA^+, tetrapentylammonium] | −5.9 ± 0.2 and −5.85 ± 0.11 | – | −6.1 ± 0.1 and −6.04 ± 0.05 | – | – | – | IC50 (hOCT2 [1]): 1.4 µM; Inhibition of uptake of 4 µM ASP+ by 1 mM competitor (endogenous canine OCT2): significantly inhibited; IC50 (hOCT2 [2]): 0.9 µM; Inhibition of uptake of 4 µM ASP+ by 1 mM competitor (hOCT2 [2]; hOCT2-MDCK cysts, 1 mM TPA+ in uptake buffer): almost completely inhibited; also recorded: completely suppressed
7 | Nc1ccc(-c2cc(=O)c3cc(O)ccc3o2)cc1 [aminogenistein] | – | – | – | – | rapid decrease in ASP^+ uptake | rapid decrease in ASP^+ uptake | –
8 | Clc1ccc(C(c2ccc(Cl)cc2)n2cc[n+](CC(OCc3ccc(Cl)cc3Cl)c3ccc(Cl)cc3Cl)c2)cc1 (stereo not drawn) [calmidazolium] | – | – | – | – | rapid decrease in ASP^+ uptake | rapid decrease in ASP^+ uptake | –
